Laboratory results published in ChEMBL document CHEMBL1201862, “PubChem BioAssay data set” (2004).
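A five-concentration, 48-hour dose response in 96-well plates underlies each endpoint, interpolated linearly between surrounding concentrations. GI50 is the concentration that inhibits growth by half.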 Active and inactive are the calls of the source. No stated cut-off is given here; in the data, active = GI50 up to about 1.1 µM and inactive = higher.

How the values were obtained:
Experiment in all cases: DTP human tumour cell line panel, 48 h
[1] = system: A498
[2] = system: ACHN
[3] = system: CAKI-1
[4] = system: HCC 2998
[5] = system: HOP-62
[6] = system: Hs-578T
[7] = system: K562
[8] = system: MCF7
[9] = system: MDA-MB-435
[10] = system: Malme-3M
[11] = system: NCI-H23
[12] = system: NCI/ADR-RES
[13] = system: OVCAR-5
[14] = system: PC-3
[15] = system: SF-268
[16] = system: SF-539
[17] = system: SNB-75
[18] = system: SR
[19] = system: SW-620

Row | SMILES | GI50 [1] | GI50 [2] | GI50 [3] | GI50 [4] | GI50 [5] | GI50 [6] | GI50 [7] | GI50 [8] | GI50 [9] | GI50 [10] | GI50 [11] | GI50 [12] | GI50 [13] | GI50 [14] | GI50 [15] | GI50 [16] | GI50 [17] | GI50 [18] | GI50 [19]
1 | N#Cc1c(-c2nc3ccccc3s2)c(=O)oc2cc(O)ccc12 | 23 µM (inactive) | 25 µM (inactive) | 17.5 µM (inactive) | 30.3 µM (inactive) | 16.7 µM (inactive) | 20 µM (inactive) | 31.8 µM (inactive) | 34.5 µM (inactive) | 27.8 µM (inactive) | 18.3 µM (inactive) | 24.8 µM (inactive) | 32.4 µM (inactive) | 52 µM (inactive) | 34.4 µM (inactive) | 48.6 µM (inactive) | > 100 µM (inactive) | > 100 µM (inactive) | 37.3 µM (inactive) | 30.8 µM (inactive)
2 | CCCCn1c(C)c(C(=O)OCC)c2cc(OCc3ccc(C(=O)Nn4c(C)ccc4C)cc3)c(Br)cc21 | > 100 µM (inactive) | > 100 µM (inactive) | > 100 µM (inactive) | > 100 µM (inactive) | > 100 µM (inactive) | > 100 µM (inactive) | > 100 µM (inactive) | > 100 µM (inactive) | > 100 µM (inactive) | > 100 µM (inactive) | > 100 µM (inactive) | > 100 µM (inactive) | > 100 µM (inactive) | > 100 µM (inactive) | > 100 µM (inactive) | > 100 µM (inactive) | > 100 µM (inactive) | > 100 µM (inactive) | > 100 µM (inactive)
3 | Cc1cc(S(=O)(=O)Nc2nc3ccccc3[nH]2)c(S)cc1Cl | > 100 µM (inactive) | 71.9 µM (inactive) | 45 µM (inactive) | 98.9 µM (inactive) | 39.4 µM (inactive) | 70 µM (inactive) | 48 µM (inactive) | 71 µM (inactive) | 49.8 µM (inactive) |  | 67.9 µM (inactive) | > 100 µM (inactive) | > 100 µM (inactive) | 46.6 µM (inactive) | 64.7 µM (inactive) | > 100 µM (inactive) | > 100 µM (inactive) | 38.2 µM (inactive) | 37.6 µM (inactive)
4 | CCOC(=O)COc1ccc(/C=C/C(=O)c2ccc(OC)cc2)cc1 | 29.6 µM (inactive) | 33 µM (inactive) | > 10 µM (inactive) | 23.7 µM (inactive) | 20.8 µM (inactive) | 25.9 µM (inactive) | 40.6 µM (inactive) | 30.7 µM (inactive) | 16.8 µM (inactive) | 28.2 µM (inactive) | 25.8 µM (inactive) | 44.7 µM (inactive) | 37.4 µM (inactive) | 22.9 µM (inactive) | 22.3 µM (inactive) | 19.6 µM (inactive) | 65.3 µM (inactive) | 23.2 µM (inactive) | 20.7 µM (inactive)
5 | CCOC(=O)c1cc2c(OC)cc(OC)cc2oc1=O | > 100 µM (inactive) | > 100 µM (inactive) | 55.3 µM (inactive) | > 100 µM (inactive) | 65.3 µM (inactive) | 45.2 µM (inactive) | > 100 µM (inactive) | > 100 µM (inactive) | > 100 µM (inactive) | > 100 µM (inactive) | 63.8 µM (inactive) | > 100 µM (inactive) | > 100 µM (inactive) | > 100 µM (inactive) | 42.3 µM (inactive) | > 100 µM (inactive) | 38.5 µM (inactive) | > 100 µM (inactive) | > 100 µM (inactive)
6 | N#Cc1nc(-c2cccc(-c3nc(C#N)c(N)o3)n2)oc1N | > 100 µM (inactive) | > 100 µM (inactive) | > 100 µM (inactive) | > 100 µM (inactive) | > 100 µM (inactive) | > 100 µM (inactive) | > 100 µM (inactive) | > 100 µM (inactive) | > 100 µM (inactive) | > 100 µM (inactive) | > 100 µM (inactive) | > 100 µM (inactive) | > 100 µM (inactive) | > 100 µM (inactive) | > 100 µM (inactive) | > 100 µM (inactive) | > 100 µM (inactive) | > 100 µM (inactive) | > 100 µM (inactive)
7 | Nc1nc(Cl)cc(NCC2(CO)CCCC2)n1 | > 100 µM (inactive) | > 100 µM (inactive) | > 100 µM (inactive) | > 100 µM (inactive) | > 100 µM (inactive) | > 100 µM (inactive) | > 100 µM (inactive) | 75.2 µM (inactive) | > 100 µM (inactive) | > 100 µM (inactive) | 65.6 µM (inactive) | 55.8 µM (inactive) | > 100 µM (inactive) | > 100 µM (inactive) | > 100 µM (inactive) | > 100 µM (inactive) | 85.7 µM (inactive) | > 100 µM (inactive) | > 100 µM (inactive)
8 | CCOC(=O)CCNC(=O)c1cc(C)cc2c1Oc1c(cc(C)cc1C(=O)NCCC(=O)OCC)S2 | 27.2 µM (inactive) | > 100 µM (inactive) | 65.6 µM (inactive) | > 100 µM (inactive) | 56.4 µM (inactive) | 34 µM (inactive) | > 100 µM (inactive) | 57.1 µM (inactive) | > 100 µM (inactive) | > 100 µM (inactive) | > 100 µM (inactive) | 44.6 µM (inactive) | > 100 µM (inactive) | > 100 µM (inactive) | 49.2 µM (inactive) | 50.4 µM (inactive) | 20.7 µM (inactive) | > 100 µM (inactive) | > 100 µM (inactive)
9 | CC(C)=CCC[C@@H](C)C1=C(O)C(=O)C(C)=C(Nc2ccccc2Br)C1=O | 7.19 µM (inactive) | 15.6 µM (inactive) | 18.6 µM (inactive) | 30.4 µM (inactive) | 12.4 µM (inactive) | 13.8 µM (inactive) | 10.8 µM (inactive) | 18.2 µM (inactive) | 19.9 µM (inactive) | 9.4 µM (inactive) | 9.71 µM (inactive) | 3.78 µM (inactive) | 20.3 µM (inactive) | 8.51 µM (inactive) | 7.89 µM (inactive) | 8.59 µM (inactive) | 15.4 µM (inactive) | 9.66 µM (inactive) | 17.3 µM (inactive)
10 | O=C(O)CCCCn1ccc(=O)[nH]c1=O | > 100 µM (inactive) | > 100 µM (inactive) | > 100 µM (inactive) | > 100 µM (inactive) | > 100 µM (inactive) | > 100 µM (inactive) | > 100 µM (inactive) | > 100 µM (inactive) | > 100 µM (inactive) | > 100 µM (inactive) | > 100 µM (inactive) | > 100 µM (inactive) | > 100 µM (inactive) | > 100 µM (inactive) | > 100 µM (inactive) | > 100 µM (inactive) | > 100 µM (inactive) | > 100 µM (inactive) | > 100 µM (inactive)
11 | CSc1cc(-c2ccccn2)nc(-c2ccccn2)c1 | 0.769 µM (active) | 0.0334 µM (active) | 0.065 µM (active) | 0.0518 µM (active) | 0.0329 µM (active) | 3.1 µM (inactive) | 0.248 µM (active) | 0.324 µM (active) | 0.327 µM (active) | 0.102 µM (active) | 0.398 µM (active) | 0.0944 µM (active) | 0.179 µM (active) | 0.092 µM (active) | 0.0559 µM (active) | 0.171 µM (active) | 0.689 µM (active) | 0.0405 µM (active) | 0.126 µM (active)
12 | CC(=O)O[C@H]1CC[C@@]2(C)C(=CC[C@@H]3[C@@H]2CC[C@]2(C)c4c(cc(C#N)c(=N)n4C(C)=O)C[C@@H]32)C1 | 30.5 µM (inactive) | 20.1 µM (inactive) | 30.8 µM (inactive) | 23.2 µM (inactive) | 24.2 µM (inactive) | 25.5 µM (inactive) | 4.06 µM (inactive) | 22.3 µM (inactive) | 19.6 µM (inactive) | 17.2 µM (inactive) | 15.3 µM (inactive) | 17.2 µM (inactive) | 27.4 µM (inactive) | 21.5 µM (inactive) | 27.9 µM (inactive) |  | 19.1 µM (inactive) | 23.8 µM (inactive) | 19.4 µM (inactive)
13 | COC(=O)C1CCC(=S)N1C(=O)OCc1ccccc1 (stereo not given) | > 100 µM (inactive) | > 100 µM (inactive) | > 100 µM (inactive) | 62.1 µM (inactive) | > 100 µM (inactive) | 49.4 µM (inactive) | > 100 µM (inactive) | 88.3 µM (inactive) | > 100 µM (inactive) | > 100 µM (inactive) | > 100 µM (inactive) | > 100 µM (inactive) | > 100 µM (inactive) | > 100 µM (inactive) | 98.6 µM (inactive) |  | > 100 µM (inactive) | > 100 µM (inactive) | 83.2 µM (inactive)
14 | COc1cc(C2S/C(=C/c3ccccc3)C(=O)N2c2ccccn2)cc(OC)c1OC (stereo not given) | 13.2 µM (inactive) | 10.5 µM (inactive) | 20.1 µM (inactive) | 15.7 µM (inactive) | 18.6 µM (inactive) | 20.2 µM (inactive) | 11.9 µM (inactive) | 11.7 µM (inactive) | 11.5 µM (inactive) | 13.4 µM (inactive) | 13.7 µM (inactive) | 19.5 µM (inactive) | 20.8 µM (inactive) | 22.4 µM (inactive) | 15.2 µM (inactive) |  | 6.87 µM (inactive) | 3.02 µM (inactive) | 15.3 µM (inactive)
15 | COc1ccc(/C=C2\N=C(c3ccccc3)N(C3Nc4cc5c(cc4S3)NC(N3C(=O)/C(=C/c4ccc(OC)cc4)N=C3c3ccccc3)S5)C2=O)cc1 (stereo not given) | 40.4 µM (inactive) | 90.4 µM (inactive) | > 100 µM (inactive) | 30.1 µM (inactive) | 41.2 µM (inactive) | 48.5 µM (inactive) | 58.2 µM (inactive) | 43.6 µM (inactive) | 56.6 µM (inactive) |  | 42.9 µM (inactive) | 19.2 µM (inactive) | > 100 µM (inactive) | 83.6 µM (inactive) | 29.6 µM (inactive) | 11.6 µM (inactive) | 22.5 µM (inactive) | 9.68 µM (inactive) | 61.5 µM (inactive)
